pIC50: −log10 of the molar value.
molecular target: T1, human Npt2a (Homo sapiens, UniProt Q06495); experiment: Npt2a activity cell based assay, membrane potential dye, CHO T-REx hNpt2a cells; details: doxycycline-induced, depolarization by sodium phosphate influx, average or median values if tested more than once
T1 construct: expressed in transfected cells
T1 sequence (Q06495 1-639): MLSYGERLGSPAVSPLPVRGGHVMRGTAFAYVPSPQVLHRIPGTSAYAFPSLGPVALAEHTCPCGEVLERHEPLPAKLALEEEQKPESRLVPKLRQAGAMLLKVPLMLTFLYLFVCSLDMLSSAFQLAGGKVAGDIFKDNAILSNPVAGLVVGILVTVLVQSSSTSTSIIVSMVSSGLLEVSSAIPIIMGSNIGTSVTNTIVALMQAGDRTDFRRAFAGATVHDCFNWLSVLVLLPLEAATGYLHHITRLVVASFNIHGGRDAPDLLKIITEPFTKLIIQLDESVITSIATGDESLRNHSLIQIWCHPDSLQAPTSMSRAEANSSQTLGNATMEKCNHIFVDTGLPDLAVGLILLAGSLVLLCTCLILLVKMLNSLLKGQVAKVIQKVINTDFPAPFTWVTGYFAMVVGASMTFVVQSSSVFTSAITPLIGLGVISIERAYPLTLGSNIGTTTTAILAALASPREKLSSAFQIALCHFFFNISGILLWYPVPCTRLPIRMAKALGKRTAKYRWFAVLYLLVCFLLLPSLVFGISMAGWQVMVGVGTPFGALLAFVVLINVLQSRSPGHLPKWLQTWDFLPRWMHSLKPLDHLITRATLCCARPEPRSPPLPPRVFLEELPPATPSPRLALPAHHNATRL
Summary of the method: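 Doxycycline-induced (0.5 μg/mL, 24 h) CHO T-REx cells were loaded with membrane potential dye in sodium-free NHE buffer (pH 7.4) and exposed to compound (50 μM–1 nM, 5 min, room temperature).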

Row | SMILES | pIC50
1 | Cc1nn(-c2cc(Nc3c(C)c(-c4ccc(C(F)F)nc4)nn3CC3CC3)ncn2)c(C)c1C#N [Example 512, 1-[6-({1-(cyclopropylmethyl)-3-[6-(difluoromethyl)pyridin-3-yl]-4-methyl-1H-pyrazol-5-yl}amino)pyrimidin-4-yl]-3,5-dimethyl-1H-pyrazole-4-carbonitrile] | 5.85
2 | Cc1c(-c2ccc(F)cc2)nn(CC2CC2)c1Nc1cc(-n2nc3c(c2C)C(O)(C(F)(F)F)CC3)ncn1 (racemic) [Example 403, (±)-2-(6-{[1-(cyclopropylmethyl)-3-(4-fluorophenyl)-4-methyl-1H-pyrazol-5-yl]amino}pyrimidin-4-yl)-3-methyl-4-(trifluoromethyl)-2,4,5,6-tetrahydrocyclopenta[c]pyrazol-4-ol] | 7.92
3 | CCc1c(Nc2cc(-n3nc(C)cc3C)ncn2)nn(CC(F)F)c1-c1ccc(F)cc1 [Example 173, N-[1-(2,2-difluoroethyl)-4-ethyl-5-(4-fluorophenyl)-1H-pyrazol-3-yl]-6-(3,5-dimethyl-1H-pyrazol-1-yl)pyrimidin-4-amine] | 7.80
4 | COc1c(-c2ccc(C#N)cc2)nn(C)c1Nc1cc(-n2nc(C)c(C(O)C(F)(F)F)c2C)ncn1 (racemic) [Example 425, (±)-4-{5-[(6-{3,5-dimethyl-4-[2,2,2-trifluoro-1-hydroxyethyl]-1H-pyrazol-1-yl}pyrimidin-4-yl)amino]-4-methoxy-1-methyl-1H-pyrazol-3-yl}benzonitrile] | 6.38
5 | Cc1nn(-c2cc(Nc3nn(C)c(-c4ccc(F)cc4)c3C)ncn2)c(C)c1C(C)(C)O [Example 109, 2-[1-(6-{[5-(4-fluorophenyl)-1,4-dimethyl-1H-pyrazol-3-yl]amino}pyrimidin-4-yl)-3 5-dimethyl-1H-pyrazol-4-yl]propan-2-ol] | 7.30
6 | CCc1c(-c2ccc(F)cc2)nn(CC(F)F)c1Nc1cc(-n2nc(C)c(Cl)c2C(F)F)ncn1 [Example 179, 6-[4-chloro-5-(difluoromethyl)-3-methyl-1H-pyrazol-1-yl]-N-[1-(2,2-difluoroethyl)-4-ethyl-3-(4-fluorophenyl)-1H-pyrazol-5-yl]pyrimidin-4-amine] | 6.77
7 | Cc1nn(-c2cc(Nc3c(C)c(-c4ccc(F)cc4F)nn3CC3CC3)ncn2)c(C)c1C(C)(C)O [Example 368, 2-[1-(6-{[1-(cyclopropylmethyl)-3-(2,4-difluorophenyl)-4-methyl-1H-pyrazol-5-yl]amino}pyrimidin-4-yl)-3,5-dimethyl-1H-pyrazol-4-yl]propan-2-ol] | 8.15
8 | Cc1nn(-c2cc(Nc3c(Cl)c(-c4ccc(F)cc4)nn3C)ncn2)c(C)c1Cl [Example 88, 6-(4-chloro-3,5-dimethyl-1H-pyrazol-1-yl)-N-[4-chloro-3-(4-fluorophenyl)-1-methyl-1H-pyrazol-5-yl]pyrimidin-4-amine] | 7.55
9 | Cc1cc(C)n(-c2cc(Nc3nn(C)c(-c4ccc(Cl)cc4)c3C)ncn2)n1 [Example 355, N-[5-(4-chlorophenyl)-1,4-dimethyl-1H-pyrazol-3-yl]-6-(3,5-dimethyl-1H-pyrazol-1-yl)pyrimidin-4-amine] | 7.70
10 | CCc1c(Nc2cc(-n3nc(C)cc3C(F)F)ncn2)nn(C)c1-c1ccc(C#N)cc1 [Example 217, 4-[3-({6-[5-(difluoromethyl)-3-methyl-1H-pyrazol-1-yl]pyrimidin-4-yl}amino)-4-ethyl-1-methyl-1H-pyrazol-5-yl]benzonitrile] | 8.70
11 | CCc1c(-c2ccc(F)cc2)nn(CC2CC2)c1Nc1cc(-n2nc(C)c(Cl)c2C(F)F)ncn1 [Example 148, 6-[4-chloro-5-(difluoromethyl)-3-methyl-1H-pyrazol-1-yl]-N-[1-(cyclopropylmethyl)-4-ethyl-3-(4-fluorophenyl)-1H-pyrazol-5-yl]pyrimidin-4-amine] | 7.10
12 | Cc1cc(C(F)F)n(-c2cc(Nc3c(C)c(-c4ccc(Cl)cc4)nn3CC3CC3)ncn2)n1 [Example 313, N-[3-(4-chlorophenyl)-1-(cyclopropylmethyl)-4-methyl-1H-pyrazol-5-yl]-6-[5-(difluoromethyl)-3-methyl-1H-pyrazol-1-yl]pyrimidin-4-amine] | 7.44
13 | CCOC(=O)c1c(C)nn(-c2cc(Nc3c(C)c(-c4ccc(C#N)cc4)nn3C)ncn2)c1C [Example 213, ethyl 1-(6-{[3-(4-cyanophenyl)-1,4-dimethyl-1H-pyrazol-5-yl]amino}pyrimidin-4-yl)-3,5-dimethyl-1H-pyrazole-4-carboxylate] | 8.70
14 | Cc1nn(-c2cc(Nc3c(Cl)c(-c4ccc(F)cc4F)nn3C)ncn2)c(C)c1Cl [Example 48, N-[4-chloro-3-(2,4-difluorophenyl)-1-methyl-1H-pyrazol-5-yl]-6-(4-chloro-3,5-dimethyl-1H-pyrazol-1-yl)pyrimidin-4-amine] | 6.51
15 | CCc1c(Nc2cc(-n3nc(C)cc3C)ncn2)nn(C)c1-c1ccc(C#N)cc1 [Example 210, 4-(3-{[6-(3,5-dimethyl-1H-pyrazol-1-yl)pyrimidin-4-yl]amino}-4-ethyl-1-methyl-1H-pyrazol-5-yl)benzonitrile] | 7.89
16 | Cc1nn(-c2cc(Nc3c(C)c(-c4ccc(C(F)F)cc4)nn3CC3CC3)ncn2)c(C)c1C(O)C1CC1 (racemic) [Example 460, (±)-cyclopropyl {1-[6-({1-(cyclopropylmethyl)-3-[4-(difluoromethyl)phenyl]-4-methyl-1H-pyrazol-5-yl}amino)pyrimidin-4-yl]-3,5-dimethyl-1H-pyrazol-4-yl}methanol] | 7.01
17 | CCOC(=O)c1cc(C)nn1-c1cc(Nc2c(C)c(-c3ccc(C#N)cc3)nn2CC2CC2)ncn1 [Example 258, ethyl 1-(6-{[3-(4-cyanophenyl)-1-(cyclopropylmethyl)-4-methyl-1H-pyrazol-5-yl]amino}pyrimidin-4-yl)-3-methyl-1H-pyrazole-5-carboxylate] | 5.55
18 | CCc1c(Nc2cc(-n3ncc4c3CCCC4)ncn2)n[nH]c1-c1ccc(F)cc1 [Example 22, N-[4-ethyl-5-(4-fluorophenyl)-1H-pyrazol-3-yl]-6-(4,5,6,7-tetrahydro-1H-indazol-1-yl)pyrimidin-4-amine] | 6.82
19 | Cc1cc(C)n(-c2cc(Nc3c(C)c(-c4ccc(C#N)cc4)nn3CCC3CC3)ncn2)n1 [Example 198, 4-[1-(2-cyclopropylethyl)-5-{[6-(3,5-dimethyl-1H-pyrazol-1-yl)pyrimidin-4-yl]amino}-4-methyl-1H-pyrazol-3-yl]benzonitrile] | 7.92
20 | Cc1c(-c2ccc(F)cc2)nn(CC2CC2)c1Nc1cc(-n2nc3c(c2C)C(=O)CC3)ncn1 [Example 395, 2-(6-{[1-(cyclopropylmethyl)-3-(4-fluorophenyl)-4-methyl-1H-pyrazol-5-yl]amino}pyrimidin-4-yl)-3-methyl-5,6-dihydrocyclopenta[c]pyrazol-4(2H)-one] | 7.72
21 | CCc1c(Nc2cc(-n3ncc4c3CCN(C(=O)OC(C)(C)C)C4)ncn2)n[nH]c1-c1ccc(F)cc1 [Example 33, tert-butyl 1-(6-{[4-ethyl-5-(4-fluorophenyl)-1H-pyrazol-3-yl]amino}pyrimidin-4-yl)-1,4,6,7-tetrahydro-5H-pyrazolo[4,3-c]pyridine-5-carboxylate] | 6.00
22 | Cc1cc(C)n(-c2cc(Nc3nn(C)c(-c4ccccc4)c3Cl)ncn2)n1 [Example 52, N-(4-chloro-1-methyl-5-phenyl-1H-pyrazol-3-yl)-6-(3,5-dimethyl-1H-pyrazol-1-yl)pyrimidin-4-amine] | 7.08
